Experimental data as given in patent US8921307B2, “Synthetic linear apelin mimetics for the treatment of heart failure” (priority 2012, dated 2014).
Where a SMILES comes first, the peptide text is derived from it. [ ]: non-standard residue; d: D form. pGlu = O=C1CC[C@@H](C(=O)O)N1; dNle = CCCC[C@@H](N)C(=O)O; dNva = CCC[C@@H](N)C(=O)O; Nle = CCCC[C@H](N)C(=O)O; Aib = CC(C)(N)C(=O)O

Experiments:
[1] = Surrogate Activity-Based Plasma Stability Assay; format: in vitro ADME; conditions: rat, Surrogate activity-based Plasma stability t½
Protocol: Stability half-life was then calculated by the formula, t½=0.693÷k Surrogate Activity-Based Plasma Stability Assay: […]
2) Calculate slope of value above and […]

hAPJ = target: T1, hAPJ (Homo sapiens, UniProt P35414); assay: hAPJ Calcium Flux Assay; format: cell-based; conditions: Chem-5 APJ stable cells, FLIPR calcium flux stimulation; read-out: hAPJ Ca^2+ Flux EC50
T1 sequence (P35414 1-380): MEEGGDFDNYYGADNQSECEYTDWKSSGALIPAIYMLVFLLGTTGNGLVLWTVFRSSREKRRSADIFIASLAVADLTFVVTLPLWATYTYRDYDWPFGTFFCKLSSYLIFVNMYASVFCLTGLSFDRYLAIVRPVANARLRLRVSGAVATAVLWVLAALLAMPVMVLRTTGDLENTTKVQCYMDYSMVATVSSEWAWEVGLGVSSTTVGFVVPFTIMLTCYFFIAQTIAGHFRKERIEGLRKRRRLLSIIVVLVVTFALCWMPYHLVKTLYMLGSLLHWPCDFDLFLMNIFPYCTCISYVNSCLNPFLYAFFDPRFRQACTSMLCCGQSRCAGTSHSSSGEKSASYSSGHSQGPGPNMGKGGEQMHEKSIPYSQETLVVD
Protocol: Chem-5 APJ stable cells (Millipore # HTS068C) were plated in 384-well format with 10,000 cells/well in 25 ul growth media, then grown 24 hours in a 37° C. tissue culture incubator. One hour before the assay, 25 ul/well FLIPR Calcium 4 dye (Molecular Devices R8142) with 2.5 mM probenecid was added, and cells were incubated one hour in a 37° C. tissue culture incubator. Peptides were solubilized in HBSS, HEPES & 0.1% BSA buffer, and serially-diluted 10-fold, from 50 uM to […], in triplicate. FLIPR Tetra was used to add peptide to the cells with dye (1:5, for final peptide concentrations ranging from 10 uM to […]). FLIPR dye inside the cells emitted fluorescence after binding to calcium, while fluorescence from outside the cells was masked. Fluorescence was measured using 470-495 excitation and 515-575 emission wavelengths on the FLIPR Tetra. Readings were done for 3 minutes total, beginning 10 seconds before the peptide addition. Maximum-minimum values were calculated and plotted for each peptide concentration, and GraphPad prism software was used to calculate EC50 values at the curve inflection points, for calcium flux stimulation by peptides.

half-life [1] [min]	EC50 (hAPJ) [nM]	SMILES
524	3.9	CCCC[C@@H](NC(=O)[C@@H]1CCCN1C(=O)CNC(=O)[C@H](CCCCN)NC(=O)C(C)(C)NC(=O)[C@H](CO)NC(=O)[C@H](CC(C)C)NC(=O)[C@H](CCCNC(=N)N)NC(=O)[C@@H]1CCCN1C(=O)[C@H](CCCNC(=N)N)NC(=O)[C@@H]1CCC(=O)N1)C(=O)N[C@H](C)C(=O)N[C@@H](Cc1ccccc1)C(=O)O [Example 37, pE-R-P-R-L-S-Aib-K-G-P-nle-a-F-OH] ([pGlu]RPRLS[Aib]KGP[dNle][dA]F-OH)
> 1000	3.3	CCCC[C@H](NC(=O)[C@@H]1CCCN1C(=O)CNC(=O)[C@H](CCCCN)NC(=O)C(C)(C)NC(=O)[C@H](CO)NC(=O)[C@H](CC(C)C)NC(=O)[C@H](CCCNC(=N)N)NC(=O)[C@@H]1CCCN1C(=O)[C@H](CCCNC(=N)N)NC(=O)[C@@H]1CCC(=O)N1)C(=O)N[C@H](C)C(=O)N[C@H](Cc1ccccc1)C(=O)O [Example 38, pE-R-P-R-L-S-Aib-K-G-P-Nle-a-f-OH] ([pGlu]RPRLS[Aib]KGP[Nle][dA][dF]-OH)
888	4.5	CCCC[C@H](NC(=O)[C@@H]1CCCN1C(=O)CNC(=O)[C@H](CCCCN)NC(=O)[C@H](Cc1c[nH]cn1)NC(=O)[C@@H](C)NC(=O)[C@H](CC(C)C)NC(=O)[C@H](CCCNC(=N)N)NC(=O)[C@@H]1CCCN1C(=O)[C@H](CCCNC(=N)N)NC(=O)[C@@H]1CCC(=O)N1)C(=O)N[C@H](C)C(=O)N[C@@H](Cc1ccccc1)C(=O)O [Example 39, pE-R-P-R-L-a-H-K-G-P-Nle-a-F-OH]
> 1000	2	CCCC[C@@H](NC(=O)[C@@H]1CCCN1C(=O)CNC(=O)[C@H](CCCCN)NC(=O)C(C)(C)NC(=O)[C@H](CO)NC(=O)[C@H](CC(C)C)NC(=O)[C@H](CCCNC(=N)N)NC(=O)[C@@H]1CCCN1C(=O)[C@H](CCCNC(=N)N)NC(=O)[C@@H]1CCC(=O)N1)C(=O)N[C@H](C)C(=O)N[C@H](Cc1ccccc1)C(=O)O [Example 40, pE-R-P-R-L-S-Aib-K-G-P-nle-a-f-OH] ([pGlu]RPRLS[Aib]KGP[dNle][dA][dF]-OH)
42.2	4.5	CCCC[C@H](NC(=O)[C@@H]1CCCN1C(=O)CNC(=O)[C@H](CCCCN)NC(=O)C(C)(C)NC(=O)[C@H](CO)NC(=O)[C@H](CC(C)C)NC(=O)[C@H](CCCNC(=N)N)NC(=O)[C@@H]1CCCN1C(=O)[C@H](CCCNC(=N)N)NC(=O)[C@@H]1CCC(=O)N1)C(=O)N1CCC[C@H]1C(=O)N[C@H](Cc1ccccc1)C(=O)O [Example 41, pE-R-P-R-L-S-Aib-K-G-P-Nle-P-f-OH]
> 1000	2.4	CCCC[C@H](NC(=O)[C@@H]1CCCN1C(=O)CNC(=O)[C@H](CCCCN)NC(=O)C(C)(C)NC(=O)[C@H](CO)NC(=O)[C@H](CC(C)C)NC(=O)[C@H](CCCNC(=N)N)NC(=O)[C@@H]1CCCN1C(=O)[C@H](CCCNC(=N)N)NC(=O)[C@@H]1CCC(=O)N1)C(=O)N[C@H](C)C(=O)N[C@@H](Cc1ccccc1)C(=O)O [Example 42, pE-R-P-R-L-S-Aib-K-G-P-Nle-a-F-OH] ([pGlu]RPRLS[Aib]KGP[Nle][dA]F-OH)
178	2	CCCC[C@@H](NC(=O)[C@@H]1CCCN1C(=O)CNC(=O)[C@H](CCCCN)NC(=O)[C@H](Cc1c[nH]cn1)NC(=O)[C@@H](C)NC(=O)[C@H](CC(C)C)NC(=O)[C@H](CCCNC(=N)N)NC(=O)[C@@H]1CCCN1C(=O)[C@H](CCCNC(=N)N)NC(=O)[C@@H]1CCC(=O)N1)C(=O)N1CCC(Oc2ccccc2)CC1 [Example 43, pE-R-P-R-L-a-H-K-G-P-nle-(4-Phenoxypiperidin-1-yl)]
555	3	CCCC[C@@H](NC(=O)[C@@H]1CCCN1C(=O)CNC(=O)[C@H](CCCCN)NC(=O)[C@H](Cc1c[nH]cn1)NC(=O)[C@@H](CC)NC(=O)[C@H](CC(C)C)NC(=O)[C@H](CCCNC(=N)N)NC(=O)[C@@H]1CCCN1C(=O)[C@H](CCCNC(=N)N)NC(=O)[C@@H]1CCC(=O)N1)C(=O)N[C@H](C)C(=O)N[C@H](Cc1ccccc1)C(=O)O [Example 44, pE-R-P-R-L-abu-H-K-G-P-nle-a-f-OH]
> 1000	2.4	CCCC[C@@H](NC(=O)[C@@H]1CCCN1C(=O)CNC(=O)[C@H](CCCCN)NC(=O)[C@H](Cc1c[nH]cn1)NC(=O)[C@@H](C)NC(=O)[C@H](CC(C)C)NC(=O)[C@H](CCCNC(=N)N)NC(=O)[C@@H]1CCCN1C(=O)[C@H](CCCNC(=N)N)NC(=O)[C@@H]1CCC(=O)N1)C(=O)N[C@H](CC)C(=O)N[C@H](Cc1ccccc1)C(=O)O [Example 45, pE-R-P-R-L-a-H-K-G-P-nle-abu-f-OH]
532	9.2	CCCC[C@@H](NC(=O)[C@@H]1CCCN1C(=O)CNC(=O)[C@H](CCCCN)NC(=O)[C@@H](Cc1ccccc1)NC(=O)[C@@H](C)NC(=O)[C@H](CC(C)C)NC(=O)[C@H](CCCNC(=N)N)NC(=O)[C@@H]1CCCN1C(=O)[C@H](CCCNC(=N)N)NC(=O)[C@@H]1CCC(=O)N1)C(=O)N[C@H](C)C(=O)N[C@H](Cc1ccccc1)C(=O)O [Example 46, pE-R-P-R-L-a-f-K-G-P-nle-a-f-OH] ([pGlu]RPRL[dA][dF]KGP[dNle][dA][dF]-OH)
> 1000	4.4	CCCC[C@@H](NC(=O)[C@@H]1CCCN1C(=O)CNC(=O)[C@H](CCCCN)NC(=O)[C@H](CC(C)C)NC(=O)[C@@H](C)NC(=O)[C@H](CC(C)C)NC(=O)[C@H](CCCNC(=N)N)NC(=O)[C@@H]1CCCN1C(=O)[C@H](CCCNC(=N)N)NC(=O)[C@@H]1CCC(=O)N1)C(=O)N[C@H](C)C(=O)N[C@H](Cc1ccccc1)C(=O)O [Example 47, pE-R-P-R-L-a-L-K-G-P-nle-a-f-OH] ([pGlu]RPRL[dA]LKGP[dNle][dA][dF]-OH)
248	16.1	CCCC[C@@H](NC(=O)[C@@H]1CCCN1C(=O)CNC(=O)[C@H](CCCCN)NC(=O)[C@@H](C)NC(=O)[C@@H](C)NC(=O)[C@H](CC(C)C)NC(=O)[C@H](CCCNC(=N)N)NC(=O)[C@@H]1CCCN1C(=O)[C@H](CCCNC(=N)N)NC(=O)[C@@H]1CCC(=O)N1)C(=O)N[C@H](C)C(=O)N[C@H](Cc1ccccc1)C(=O)O [Example 48, pE-R-P-R-L-a-a-K-G-P-nle-a-f-OH] ([pGlu]RPRL[dA][dA]KGP[dNle][dA][dF]-OH)
> 1000	623	CCCC[C@@H](NC(=O)[C@@H]1CCCN1C(=O)CNC(=O)[C@H](CCCCN)NC(=O)[C@H](Cc1c[nH]cn1)NC(=O)[C@@H](C)NC(=O)[C@H](CC(C)C)NC(=O)[C@H](CCCNC(=N)N)NC(=O)[C@@H](C)NC(=O)[C@H](CCCNC(=N)N)NC(=O)[C@@H]1CCC(=O)N1)C(=O)N[C@H](C)C(=O)N[C@H](Cc1ccccc1)C(=O)O [Example 49, pE-R-a-R-L-a-H-K-G-P-nle-a-f-OH] ([pGlu]R[dA]RL[dA]HKGP[dNle][dA][dF]-OH)
11	1.4	CCCC[C@@H](NC(=O)[C@@H]1CCCN1C(=O)CNC(=O)[C@H](CCCCN)NC(=O)[C@H](Cc1c[nH]cn1)NC(=O)[C@@H](C)NC(=O)[C@H](CC(C)C)NC(=O)[C@H](CCCNC(=N)N)NC(=O)[C@@H]1CCCN1C(=O)[C@@H](N)CCCNC(=N)N)C(=O)N[C@H](Cc1ccccc1)C(=O)O [Example 50, H-R-P-R-L-a-H-K-G-P-nle-f-OH] (H-RPRL[dA]HKGP[dNle][dF]-OH)
> 1000	8.5	CCCC[C@@H](NC(=O)[C@@H]1CCCN1C(=O)CNC(=O)[C@H](CCCCN)NC(=O)[C@@H](C)NC(=O)[C@H](CO)NC(=O)[C@H](CC(C)C)NC(=O)[C@H](CCCNC(=N)N)NC(=O)[C@@H]1CCCN1C(=O)[C@H](CCCNC(=N)N)NC(=O)[C@@H]1CCC(=O)N1)C(=O)N[C@H](C)C(=O)N[C@H](Cc1ccccc1)C(=O)O [Example 51, pE-R-P-R-L-S-a-K-G-P-nle-a-f-OH] ([pGlu]RPRLS[dA]KGP[dNle][dA][dF]-OH)
> 1000	19.5	CCCC[C@@H](NC(=O)[C@@H]1CCCN1C(=O)CNC(=O)[C@H](CCCCN)NC(=O)[C@H](Cc1c[nH]cn1)NC(=O)[C@@H](CCC)NC(=O)[C@H](CC(C)C)NC(=O)[C@H](CCCNC(=N)N)NC(=O)[C@@H]1CCCN1C(=O)[C@H](CCCNC(=N)N)NC(=O)[C@@H]1CCC(=O)N1)C(=O)N[C@H](C)C(=O)N[C@H](Cc1ccccc1)C(=O)O [Example 52, pE-R-P-R-L-nva-H-K-G-P-nle-a-f-OH] ([pGlu]RPRL[dNva]HKGP[dNle][dA][dF]-OH)
> 1000	8.7	CCC[C@@H](NC(=O)[C@@H]1CCCN1C(=O)CNC(=O)[C@H](CCCCN)NC(=O)[C@H](Cc1c[nH]cn1)NC(=O)[C@@H](C)NC(=O)[C@H](CC(C)C)NC(=O)[C@H](CCCNC(=N)N)NC(=O)[C@@H]1CCCN1C(=O)[C@H](CCCNC(=N)N)NC(=O)[C@@H]1CCC(=O)N1)C(=O)N[C@H](C)C(=O)N[C@H](Cc1ccccc1)C(=O)O [Example 53, pE-R-P-R-L-a-H-K-G-P-nva-a-f-OH] ([pGlu]RPRL[dA]HKGP[dNva][dA][dF]-OH)
